Results taken from patent publication US11345678B2, “Benzopyrazole compound used as RHO kinase inhibitor” (MEDSHINE DISCOVERY INC., priority 2018, dated 2022).

Columns and labels:
ROCK2 = ROCK2 (Homo sapiens (Human), UniProt O75116); experiment: In vitro inhibitory activity against ROCK protein kinase (33P-ATP filter-binding), ROCK2; assay type: biochemical; details: 1 nM ROCK protein kinase, 20 μM Long S6 Kinase substrate peptide
Method: (§1) 1. In Vitro Evaluation of the Inhibitory Activity Against ROCK Protein Kinase
(§2) Experimental purpose: to detect the inhibitory IC50 value of the compound against ROCK protein kinase.
(§3) Assay buffer solution: 20 mM 4-hydroxyethylpiperazine ethanesulfonic acid (pH 7.5), 10 mM magnesium chloride, 1 mM ethylene glycol-bis-(2-aminoethyl)tetraacetic acid, 0.02% polyethylene glycol monododecyl ether, 0.02 mg/mL bovine serum albumin, 0.1 mM sodium vanadate, 2 mM dithiothreitol, 1% DMSO.
(§4) The freshly prepared buffer solution was added to ROCK protein kinase substrate (Long S6 Kinase substrate peptide), at a concentration of 20 μM, then 1 nM ROCK protein kinase was added thereto and stirred evenly. Echo550 was used to add a series of DMSO dilutions containing the test compound (starting from 10 μM, serially diluted by 3 times), the solution was pre-incubated at room temperature for 20 minutes, then ^33P-ATP (radiation intensity 10 μCi/μL) was added to initiate the reaction, and the reaction was performed at room temperature for two hours. Then the solution was filtered by P81 ion exchange paper (Whatman #3698-915) and washed with 0.75% phosphoric acid. The radiation intensity was determined by Filter-Binding method.
(§5) The protein kinase inhibitory activity of the compound was expressed as the remaining protein kinase activity relative to the blank substrate (simply DMSO). Prism software package (GraphPad Software, San Diego Calif., USA) was used to calculate IC50 value and the curve.

ROCK1 = ROCK1 (Homo sapiens (Human), UniProt Q13464); experiment: In vitro inhibitory activity against ROCK protein kinase (33P-ATP filter-binding), ROCK1; assay type: biochemical; details: 1 nM ROCK protein kinase, 20 μM Long S6 Kinase substrate peptide
Method: as §1, §2, §3, §4, §5

Sequence of ROCK2 (O75116 whole entry): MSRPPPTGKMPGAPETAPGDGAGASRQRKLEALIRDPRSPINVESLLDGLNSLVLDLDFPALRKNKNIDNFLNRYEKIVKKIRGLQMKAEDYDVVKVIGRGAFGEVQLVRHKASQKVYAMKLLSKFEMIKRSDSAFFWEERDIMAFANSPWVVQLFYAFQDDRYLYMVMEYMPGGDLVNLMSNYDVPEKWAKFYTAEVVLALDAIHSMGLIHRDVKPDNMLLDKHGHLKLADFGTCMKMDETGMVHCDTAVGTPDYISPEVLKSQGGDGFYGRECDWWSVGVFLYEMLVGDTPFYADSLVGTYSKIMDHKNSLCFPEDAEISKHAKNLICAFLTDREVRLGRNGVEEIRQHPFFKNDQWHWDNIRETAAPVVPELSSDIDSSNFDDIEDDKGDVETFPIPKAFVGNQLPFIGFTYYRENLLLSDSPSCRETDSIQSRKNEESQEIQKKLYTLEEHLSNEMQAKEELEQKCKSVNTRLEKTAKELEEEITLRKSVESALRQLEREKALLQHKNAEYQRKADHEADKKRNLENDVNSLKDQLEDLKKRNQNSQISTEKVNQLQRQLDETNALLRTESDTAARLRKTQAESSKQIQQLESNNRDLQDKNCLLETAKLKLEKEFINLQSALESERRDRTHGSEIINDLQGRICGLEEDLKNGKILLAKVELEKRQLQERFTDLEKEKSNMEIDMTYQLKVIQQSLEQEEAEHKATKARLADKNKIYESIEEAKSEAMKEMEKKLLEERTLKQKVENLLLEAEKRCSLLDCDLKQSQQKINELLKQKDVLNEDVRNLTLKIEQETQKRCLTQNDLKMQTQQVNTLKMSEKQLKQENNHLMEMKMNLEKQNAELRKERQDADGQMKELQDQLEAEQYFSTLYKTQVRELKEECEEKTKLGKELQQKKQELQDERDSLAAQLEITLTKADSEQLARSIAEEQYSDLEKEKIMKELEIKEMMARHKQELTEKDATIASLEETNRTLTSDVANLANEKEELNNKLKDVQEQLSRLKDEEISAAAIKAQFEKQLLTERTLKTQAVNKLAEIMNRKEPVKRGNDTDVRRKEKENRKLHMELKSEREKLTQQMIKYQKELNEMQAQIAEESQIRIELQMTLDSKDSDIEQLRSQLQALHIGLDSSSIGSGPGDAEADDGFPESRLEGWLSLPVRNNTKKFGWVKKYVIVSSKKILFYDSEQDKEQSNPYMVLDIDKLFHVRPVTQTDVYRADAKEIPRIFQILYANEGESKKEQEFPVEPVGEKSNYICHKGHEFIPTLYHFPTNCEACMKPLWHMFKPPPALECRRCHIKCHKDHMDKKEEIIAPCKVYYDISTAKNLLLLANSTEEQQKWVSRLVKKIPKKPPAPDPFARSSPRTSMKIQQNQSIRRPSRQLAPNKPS
Sequence of ROCK1 (Q13464 whole entry): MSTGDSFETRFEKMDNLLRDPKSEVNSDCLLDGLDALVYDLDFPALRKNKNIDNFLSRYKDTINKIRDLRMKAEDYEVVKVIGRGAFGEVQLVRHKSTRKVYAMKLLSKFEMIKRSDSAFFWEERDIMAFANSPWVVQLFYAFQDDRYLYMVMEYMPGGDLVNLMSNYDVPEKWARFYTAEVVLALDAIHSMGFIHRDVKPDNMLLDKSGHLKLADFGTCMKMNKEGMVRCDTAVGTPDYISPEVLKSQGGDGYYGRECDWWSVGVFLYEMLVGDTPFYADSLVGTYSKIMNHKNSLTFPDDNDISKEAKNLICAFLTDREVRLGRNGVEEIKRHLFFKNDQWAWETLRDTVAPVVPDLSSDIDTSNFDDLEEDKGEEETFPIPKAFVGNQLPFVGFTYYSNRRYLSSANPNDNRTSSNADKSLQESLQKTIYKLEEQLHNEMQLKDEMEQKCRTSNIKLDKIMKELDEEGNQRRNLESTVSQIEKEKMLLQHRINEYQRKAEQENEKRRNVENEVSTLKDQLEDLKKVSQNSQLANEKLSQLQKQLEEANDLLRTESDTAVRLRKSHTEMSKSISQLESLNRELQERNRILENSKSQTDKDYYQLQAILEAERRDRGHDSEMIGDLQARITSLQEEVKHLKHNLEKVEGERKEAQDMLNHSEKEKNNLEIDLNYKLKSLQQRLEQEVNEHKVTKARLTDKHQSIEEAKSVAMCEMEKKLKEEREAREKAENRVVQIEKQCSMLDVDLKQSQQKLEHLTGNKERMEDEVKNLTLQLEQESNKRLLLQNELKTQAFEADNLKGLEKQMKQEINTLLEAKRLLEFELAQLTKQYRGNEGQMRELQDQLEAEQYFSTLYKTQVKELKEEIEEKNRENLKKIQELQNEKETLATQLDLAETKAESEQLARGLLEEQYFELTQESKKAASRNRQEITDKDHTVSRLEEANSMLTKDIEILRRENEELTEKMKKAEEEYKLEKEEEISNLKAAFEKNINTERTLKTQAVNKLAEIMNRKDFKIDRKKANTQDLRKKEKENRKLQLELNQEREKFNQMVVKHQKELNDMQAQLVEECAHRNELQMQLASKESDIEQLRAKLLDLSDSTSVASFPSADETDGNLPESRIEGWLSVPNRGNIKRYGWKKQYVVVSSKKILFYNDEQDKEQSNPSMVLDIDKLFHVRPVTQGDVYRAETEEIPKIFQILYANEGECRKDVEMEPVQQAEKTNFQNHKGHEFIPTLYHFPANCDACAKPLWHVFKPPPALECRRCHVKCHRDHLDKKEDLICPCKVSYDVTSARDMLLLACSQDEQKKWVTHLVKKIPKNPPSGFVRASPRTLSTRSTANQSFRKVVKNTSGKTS

| IC50 (ROCK2) [nM] | IC50 (ROCK1) [nM] | SMILES |
| --- | --- | --- |
| 5 | 56 | COc1cccc(C(CN)NC(=O)c2cc(-c3ccc4[nH]nc(C)c4c3)ccc2OC)c1 (stereo not drawn) [Compound 50] |
| 7 | 65 | COc1cccc(C(CN)NC(=O)c2cccc(-c3ccc4[nH]nc(N)c4c3)c2)c1 (stereo not drawn) [Compound 29] |
| 15 | 429 | COc1cccc(C(CN)NC(=O)c2cc(CN3CCCC3)cc(-c3ccc4[nH]nc(C)c4c3)c2)c1 (stereo not drawn) [Compound 39] |
| 3 |  | COc1cccc(CNC(=O)c2cccc(-c3ccc4[nH]ncc4c3)c2)c1 [Compound 21] |
| 48 | 1610 | COc1cccc(C(CN)NC(=O)c2cc(CN3CCCC3)cc(-c3ccc4[nH]nc(F)c4c3)c2)c1 (stereo not drawn) [Compound 58] |
| 20 | 1090 | COc1cc(C(=O)NC(CN)c2cccc(OC)c2)cc(-c2ccc3[nH]nc(F)c3c2)c1 (stereo not drawn) [Compound 53] |
| 19 | 1270 | COc1cccc(C2(NC(=O)c3cccc(-c4ccc5[nH]nc(F)c5c4)c3)CCNC2)c1 (stereo not drawn) [Compound 45] |
| 21 |  | NCC(NC(=O)c1cccc(-c2ccc3[nH]nc(F)c3c2)c1)c1cccc(F)c1 (stereo not drawn) [Compound 41] |
| 10 | 182 | COc1cc(C(=O)NC(CN)c2cccc(OC)c2)cc(-c2ccc3[nH]nc(C)c3c2)c1 (stereo not drawn) [Compound 52] |
| 23 |  | O=C(NC(CO)c1cc(F)cc(F)c1)c1cccc(-c2ccc3[nH]ncc3c2)c1 (stereo not drawn) [Compound 17] |
| 13 | 43 | COc1cccc(C(CN)NC(=O)c2cccc(-c3ccc4[nH]nc(F)c4c3)c2)c1 (stereo not drawn) [Compound 28] |
| 7 | 63 | O=C(NC(CCO)c1cccc(F)c1)c1cccc(-c2ccc3[nH]ncc3c2)c1 (stereo not drawn) [Compound 6] |
| 4 | 24 | COc1cccc(C(CCN)NC(=O)c2cccc(-c3ccc4[nH]ncc4c3)c2)c1 (stereo not drawn) [Compound 7] |
| 22 | 336 | Cc1cccc(C(CN)NC(=O)c2cc(-c3ccc4[nH]nc(C)c4c3)ccn2)c1 (stereo not drawn) [Compound 67] |
| 11 | 765 | COc1cccc(C(CCO)NC(=O)c2cncc(-c3ccc4[nH]ncc4c3)c2)c1 (stereo not drawn) [Compound 3] |
| 21 | 1640 | COc1cccc(C(CCO)NC(=O)c2ccnc(-c3ccc4[nH]ncc4c3)c2)c1 (stereo not drawn) [Compound 1] |
| 12 | 67 | COc1cccc(C(CN)NC(=O)c2cc(-c3ccc4[nH]nc(C)c4c3)ccc2OC(F)F)c1 (stereo not drawn) [Compound 47] |
| 6 | 52 | O=C(NC(CO)c1cccc(F)c1)c1cccc(-c2ccc3[nH]ncc3c2)c1 (stereo not drawn) [Compound 22] |
| 9 | 84 | COc1cccc(C(CN)NC(=O)c2cc(-c3ccc4[nH]nc(F)c4c3)ccc2OC(F)F)c1 (stereo not drawn) [Compound 48] |
| 35 | 735 | O=C(NC(CO)c1cccc(F)c1F)c1cccc(-c2ccc3[nH]ncc3c2)c1 (stereo not drawn) [Compound 19] |
| < 1 | 79 | COc1cccc(C(CCO)NC(=O)c2cccc(-c3ccc4[nH]ncc4c3)c2)c1 (stereo not drawn) [Compound 2] |

| IC50 (ROCK2) [nM] | IC50 (ROCK1) [nM] | SMILES |
| --- | --- | --- |
| 6 | 33 | COc1cccc(C(CO)NC(=O)c2cccc(-c3ccc4[nH]ncc4c3)c2)c1 (stereo not drawn) [Compound 5] |
| 29 |  | O=C(NC(CO)c1ccc(F)c(F)c1)c1cccc(-c2ccc3[nH]ncc3c2)c1 (stereo not drawn) [Compound 18] |
| 30 | 407 | COc1cccc(C(CO)NC(=O)c2cccc(-c3ccc4[nH]nc(N)c4c3)c2)c1 (stereo not drawn) [Compound 27] |
| 12 |  | COc1cccc(C(CN)NC(=O)c2cc(-c3ccc4[nH]nc(C)c4c3)ncn2)c1 (stereo not drawn) [Compound 69] |
| 51 | 4120 | COc1cccc(C(CN2CCNCC2)NC(=O)c2cccc(-c3ccc4[nH]nc(F)c4c3)c2)c1 (stereo not drawn) [Compound 55] |
| 7 | 290 | COc1cccc(C(CN2CCCC2)NC(=O)c2cccc(-c3ccc4[nH]nc(C)c4c3)c2)c1 (stereo not drawn) [Compound 37] |
| 7 | 29 | NCC(NC(=O)c1cccc(-c2ccc3[nH]ncc3c2)c1)c1cccc(F)c1 (stereo not drawn) [Compound 23] |
| 14 | 126 | O=C(NC(CN1CCCC1)c1cccc(F)c1)c1cccc(-c2ccc3[nH]ncc3c2)c1 (stereo not drawn) [Compound 24] |
| 21 | 180 | COc1cccc(C(CN)NC(=O)c2cccc(-c3ccc4[nH]nc(F)c4c3)c2)c1 (stereo not drawn) [Compound 54] |
| 10 | 166 | COc1cccc(C(CCN(C)C)NC(=O)c2cccc(-c3ccc4[nH]ncc4c3)c2)c1 (stereo not drawn) [Compound 8] |
| 6 | 288 | COc1cccc(C(CCO)NC(=O)c2cc(-c3ccc4[nH]ncc4c3)ccn2)c1 (stereo not drawn) [Compound 4] |
| 26 | 259 | O=C(NC(CO)c1cc(F)ccc1F)c1cccc(-c2ccc3[nH]ncc3c2)c1 (stereo not drawn) [Compound 16] |
| 6 | 79 | COc1cccc(C(CN(C)C)NC(=O)c2cccc(-c3ccc4[nH]ncc4c3)c2)c1 (stereo not drawn) [Compound 10] |
| 4 | 106 | COc1cccc(C2(NC(=O)c3cccc(-c4ccc5[nH]nc(C)c5c4)c3)CCNC2)c1 (stereo not drawn) [Compound 44] |
| 44 | 215 | O=C(NC(CO)c1cccc(F)c1)c1cccc(-c2ccc3[nH]nc(F)c3c2)c1 (stereo not drawn) [Compound 60] |
| 16 | 139 | O=C(NC(CCO)c1cccc(Cl)c1)c1cccc(-c2ccc3[nH]ncc3c2)c1 (stereo not drawn) [Compound 13] |
| 16 |  | COc1cccc(C(CN)NC(=O)c2cc(-c3ccc4[nH]nc(C)c4c3)cc3c2CNC3)c1 (stereo not drawn) [Compound 33] |
| 4 | 138 | CNCC(NC(=O)c1cccc(-c2ccc3[nH]nc(C)c3c2)c1)c1cccc(OC)c1 (stereo not drawn) [Compound 65] |
| 8 | 267 | COc1cccc(C2(NC(=O)c3cc(-c4ccc5[nH]nc(C)c5c4)ccn3)CCNC2)c1 (stereo not drawn) [Compound 46] |
| 6 | 153 | Cc1n[nH]c2ccc(-c3cccc(C(=O)NC(CN)c4cccc(Cl)c4)c3)cc12 (stereo not drawn) [Compound 43] |
| 58 | 1260 | COc1cccc(C(CN)NC(=O)c2cc(C#N)cc(-c3ccc4[nH]nc(C)c4c3)c2)c1 (stereo not drawn) [Compound 57] |

| IC50 (ROCK2) [nM] | IC50 (ROCK1) [nM] | SMILES |
| --- | --- | --- |
| 8 | 103 | COc1cccc(C(CN2CCCC2)NC(=O)c2cccc(-c3ccc4[nH]ncc4c3)c2)c1 (stereo not drawn) [Compound 14] |
| 14 | 75 | COc1cccc(C(CNC(C)C)NC(=O)c2cccc(-c3ccc4[nH]nc(C)c4c3)c2)c1 (stereo not drawn) [Compound 38] |
| 35 | 304 | O=C(NC(CCO)c1ccccc1F)c1cccc(-c2ccc3[nH]ncc3c2)c1 (stereo not drawn) [Compound 20] |
| 23 | 343 | COc1cccc(C(CN2CCNCC2)NC(=O)c2cccc(-c3ccc4[nH]ncc4c3)c2)c1 (stereo not drawn) [Compound 32] |
| 12 | 257 | COc1cccc(C(CO)NC(=O)c2cc(F)cc(-c3ccc4[nH]ncc4c3)c2)c1 (stereo not drawn) [Compound 12] |
| 48 | 289 | NCC(NC(=O)c1cccc(-c2ccc3[nH]nc(F)c3c2)c1)c1cccc(F)c1F (stereo not drawn) [Compound 62] |
| 7 | 50 | COc1cccc(C(CN)NC(=O)c2cc(-c3ccc4[nH]nc(F)c4c3)ccc2OC)c1 (stereo not drawn) [Compound 51] |
| 17 | 1430 | COc1cccc(C(CN)NC(=O)c2cc(-c3ccc4[nH]nc(C)c4c3)cc3cccnc23)c1 (stereo not drawn) [Compound 34] |
| 4 | 25 | COc1cccc(C(CN)NC(=O)c2cccc(-c3ccc4[nH]ncc4c3)c2)c1 (stereo not drawn) [Compound 9] |
| 35 |  | Cc1n[nH]c2ccc(-c3cccc(C(=O)NC(CN)c4cccc(OC5CC5)c4)c3)cc12 (stereo not drawn) [Compound 63] |
| 16 | 94 | Cc1n[nH]c2ccc(-c3cccc(C(=O)NC(CO)c4cccc(F)c4)c3)cc12 (stereo not drawn) [Compound 59] |
| 20 | 223 | COCCC(NC(=O)c1cccc(-c2ccc3[nH]ncc3c2)c1)c1cccc(OC)c1 (stereo not drawn) [Compound 31] |
| 3 | 43 | COc1cccc(C(CN)NC(=O)c2cccc(-c3ccc4[nH]nc(C)c4c3)c2)c1 (stereo not drawn) [Compound 30] |
| 5 | 79 | COc1cccc(C(CO)NC(=O)c2ccc(F)c(-c3ccc4[nH]ncc4c3)c2)c1 (stereo not drawn) [Compound 11] |
| 24 |  | COc1cccc(C(CNC(C)C)NC(=O)c2cc(-c3ccc4[nH]nc(C)c4c3)ccn2)c1 (stereo not drawn) [Compound 70] |
| 8 |  | COc1cccc(C(CN)NC(=O)c2cccc(-c3ccc4[nH]nc(C5CC5)c4c3)c2)c1 (stereo not drawn) [Compound 68] |
| 12 | 278 | COc1cccc(C(CO)NC(=O)c2cc(-c3ccc4[nH]ncc4c3)ccc2F)c1 (stereo not drawn) [Compound 15] |
| 9 | 758 | COc1cccc(C(CN)NC(=O)c2cccc(-c3cc(OC)c4[nH]ncc4c3)c2)c1 (stereo not drawn) [Compound 71] |
| 4 |  | Cc1n[nH]c2ccc(-c3cccc(C(=O)NC(CN)c4cccc(F)c4)c3)cc12 (stereo not drawn) [Compound 42] |
| 44 | 2300 | COc1cccc(C(CN2CCNCC2)NC(=O)c2cccc(-c3ccc4[nH]nc(C)c4c3)c2)c1 (stereo not drawn) [Compound 56] |
